Legend:
[1] = target: T1, Human MGAT-2 (Homo sapiens (Human), UniProt Q3SYC2); assay: MGAT LCMS Assay (human MGAT-2); format: biochemical; conditions: human MGAT-2 membranes expressed in Sf9 cells; 2-oleoylglycerol and oleoyl-Coenzyme A; read-out: h-MGAT2 IC50 (nM) LCMS Assay;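 further: diolein product quantified by LC/MS with positive APCI, expressed as peak area ratio versus an internal standard, and this ratio used to derive IC50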
[2] = target: T1, Human MGAT-2; assay: MGAT SPA Assay; format: biochemical; conditions: membranes from Sf9 cells expressing recombinant human MGAT2; 2-monooleoylglycerol and [3H]-oleoyl-CoA;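 further: inhibition scaled between DMSO vehicle as full MGAT2 activity and membranes of uninfected Sf9 cells as blank, IC50 fitted by logistic curve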

T1 sequence (Q3SYC2 whole entry): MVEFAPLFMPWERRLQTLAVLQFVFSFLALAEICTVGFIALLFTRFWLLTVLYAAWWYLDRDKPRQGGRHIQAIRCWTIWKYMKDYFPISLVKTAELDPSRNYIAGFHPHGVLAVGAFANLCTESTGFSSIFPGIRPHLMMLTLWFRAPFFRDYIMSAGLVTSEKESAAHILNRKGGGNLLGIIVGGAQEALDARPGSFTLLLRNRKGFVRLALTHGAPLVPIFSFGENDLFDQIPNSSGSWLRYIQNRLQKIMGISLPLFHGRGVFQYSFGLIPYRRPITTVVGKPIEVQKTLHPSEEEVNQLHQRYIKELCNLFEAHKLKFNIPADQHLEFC

## Cc1ccc(C2=C(c3nn[nH]n3)C(=O)NC(c3ccc(OCCCC(F)(F)C(F)(F)F)cc3)(C(F)(F)F)C2)cc1 (centres unmarked) [Example 118]
[1]
  IC50: 4 nM
[2]
  IC50: 32 nM

## N#CC1=C(c2ccc(C(F)(F)F)cc2)CC(c2ccc(OCCCC(F)(F)F)cc2)(C(F)(F)F)NC1=O (centres unmarked) [Example 75]
[1]
  IC50: 209 nM
[2]
  IC50: 873 nM

## COc1ccc(NC(=O)C2C(=O)N[C@@](c3ccc(OCCCC(F)(F)F)cc3)(C(F)(F)F)CC2c2ccc(C)cc2)cc1 (single isomer, unassigned) [Example 16-2, N-(4-Methoxyphenyl)-2-oxo-4-p-tolyl-6-(4-(4,4,4-trifluorobutoxyl)phenyl)-6-(trifluoromethyl)piperidine-3-carboxamide]
[1]
  IC50: 416 nM
[2]
  IC50: 8430 nM

## Cc1ccc(C2=C(C#N)C(=O)NC(C)(c3ccccc3)C2)cc1 (centres unmarked) [Example 23]
[2]
  IC50: 1290 nM

## CCCCCc1ccc(C2(C(F)(F)F)CC(c3ccc(C)cc3)=C(C(=O)Nc3ccc(F)cc3)C(=O)N2)cc1 (centres unmarked) [Example 51]
[1]
  IC50: 13 nM
[2]
  IC50: 63 nM

## Cc1ccc(C2=C(c3ccc(OC(F)(F)F)cc3)C(=O)NC(c3ccc(OCCCC(F)(F)F)cc3)(C(F)(F)F)C2)cc1 (centres unmarked) [Example 94]
[1]
  IC50: 4 nM
[2]
  IC50: 32 nM

## Cc1ccc(C2=C(c3nnn[nH]3)C(=O)NC(C)(c3ccc(C)cc3)C2)cc1 (centres unmarked) [Example 21]
[2]
  IC50: 913 nM

## Cc1ccc(C2=CC(=O)NC(c3ccc(OCCCC(F)(F)F)cc3)(C(F)(F)F)C2)cc1 (centres unmarked) [Example 70]
[2]
  IC50: 3400 nM

## Cc1ccc(C2=C(C(=O)Nc3ccc(F)cc3)C(=O)NC(c3ccc(-c4cnccn4)cc3)(C(F)(F)F)C2)cc1 (centres unmarked) [Example 50]
[1]
  IC50: 95 nM
[2]
  IC50: 242 nM

## CCCCCCCCNC(=O)C1(C)CC(c2ccc(C)cc2)=C(C(=O)Nc2ccc(OC)cc2)C(=O)N1 (centres unmarked) [Example 174]
[1]
  IC50: 60 nM
[2]
  IC50: 237 nM

## Cc1ccc(C2=C(C(=O)Nc3ccc(F)cc3)C(=O)NC(c3ccc(Oc4ncccn4)cc3)(C(F)(F)F)C2)cc1 (centres unmarked) [Example 52]
[1]
  IC50: 99 nM
[2]
  IC50: 477 nM

## Cc1ccc(C2=C(C#N)C(=O)NC(c3ccc(Cl)cc3)(C(F)(F)F)C2)cc1 (centres unmarked) [Example 24]
[2]
  IC50: 1730 nM

## Cc1ccc(C2=C(NC(=O)c3oncc3C)C(=O)NC(c3ccc(OCCCC(F)(F)F)cc3)(C(F)(F)F)C2)cc1 (centres unmarked) [Example 157]
[1]
  IC50: 84 nM
[2]
  IC50: 168 nM

## Cc1ccc(C2=C(C#N)C(=O)NC(c3ccc(O)cc3)(C(F)(F)F)C2)cc1 (centres unmarked) [Example 4, 6-(4-Hydroxyphenyl)-2-oxo-4-p-tolyl-6-(trifluoromethyl)-1,2,5,6-tetrahydro-pyridine-3-carbonitrile]
[2]
  IC50: 5870 nM

## Cc1ccc(C2=C(C#N)C(=O)NC(C)(c3ccc(C)c(C)c3)C2)cc1C (centres unmarked) [Example 18]
[2]
  IC50: 5760 nM

## CCOc1ccc(-c2ccc(C3(C(F)(F)F)CC(c4ccc(C)cc4)=C(C#N)C(=O)N3)cc2)cn1 (centres unmarked) [Example 7, 6-(4-(6-Ethoxypyridin-3-yl)phenyl)-2-oxo-4-p-tolyl-6-(trifluoromethyl)-1,2,5,6-tetrahydropyridine-3-carbonitrile]
[2]
  IC50: 818 nM

## Cc1ccc(C2=C(C(=O)Nc3cccc(Cl)c3)C(=O)NC(c3ccc(OCCCC(F)(F)F)cc3)(C(F)(F)F)C2)cc1 (centres unmarked) [Example 61]
[2]
  IC50: 709 nM

## CC1(c2ccc(N3CCOCC3)cc2)CC(c2ccc(N3CCOCC3)cc2)=C(C#N)C(=O)N1 (centres unmarked) [Example 17]
[2]
  IC50: 1930 nM

## Cc1ccc(C2=C(C#N)C(=O)NC(c3ccc(Oc4ncccn4)cc3)(C(F)(F)F)C2)cc1 (centres unmarked) [Example 46]
[2]
  IC50: 871 nM

## Cc1ccc(C2=C(C#N)C(=O)NC(c3cccc(Br)c3)(C(F)(F)F)C2)cc1 (centres unmarked) [Example 32]
[2]
  IC50: 9960 nM

## Cc1ccc(C2=C(C#N)C(=O)NC(c3cccc(F)c3)(C(F)(F)F)C2)cc1 (centres unmarked) [Example 25]
[2]
  IC50: 4570 nM

## Cc1ccc(C2=C(C#N)C(=O)NC(c3ccc(OCc4ccccc4)cc3)(C(F)(F)F)C2)cc1 (centres unmarked) [Example 47]
[2]
  IC50: 756 nM

## Cc1ccc(C2=C(C#N)C(=O)NC(c3ccc(F)cc3)(C(F)(F)F)C2)cc1 (centres unmarked) [Example 27]
[2]
  IC50: 2520 nM

## Cc1ccc(C2=C(C#N)C(=O)NC(c3ccc(Br)cc3)(C(F)(F)F)C2)cc1 (centres unmarked) [Example 3, 6-(4-Bromophenyl)-2-oxo-4-p-tolyl-6-(trifluoromethyl)-1,2,5,6-tetrahydropyridine-3-carbonitrile]
[2]
  IC50: 1800 nM

## Cc1ccc(C2=C(C#N)C(=O)NC(c3ccc(F)c(F)c3)(C(F)(F)F)C2)cc1 (centres unmarked) [Example 26]
[2]
  IC50: 6430 nM

## Cc1ccc(C2=C(C#N)C(=O)NC(c3ccc(N(C)C)cc3)(C(F)(F)F)C2)cc1 (centres unmarked) [Example 31]
[2]
  IC50: 1510 nM

## CCCCCCCC#CC1(C(F)(F)F)CC(c2ccc(OC(F)F)cc2)=C(NC(=O)CS(C)(=O)=O)C(=O)N1 (centres unmarked) [Example 313]
[1]
  IC50: 4 nM

## O=C1NC(c2ccc(OCCCCCC(F)(F)F)c(F)c2)(C(F)(F)F)CC(c2ccc(CC(F)(F)F)cc2)=C1c1nn[nH]n1 (centres unmarked) [Example 306]
[1]
  IC50: 3 nM

— US9187424B1, “Aryl dihydropyridinones and piperidinone MGAT2 inhibitors” (Bristol-Myers Squibb Company, priority 2011, dated 2015)
